Counter-ions that a name gives are not always drawn. Each block holds one compound with its values, some of them ahead of it.
Tests used:
[1] = Elimination of the molecules: cumulative urinary and faecal excretion 0-72 hours; type: in vivo, mouse; conditions: for Faecal elimination 0-72 hours (Faeces) / Urinary and faecal elimination 0-72 hours (Total) / Urinary elimination 0-72 hours (Urine): cumulative excretion 0-72 hours; for Faecal elimination 0-72 hours (Faeces) / Urinary elimination 0-72 hours (Urine): mice in metabolic cages; for Urinary and faecal elimination 0-72 hours (Total): urine + faeces
tumour = test: Dosimetry with regard to the tumour (MIRD programme, extrapolated to ^131I); conditions: for Effective period: extrapolated to 131I labelling; for Biological period: from biodistribution data
[2] = test system: grafted B16 F0 murine melanoma tumour; test: Biodistribution of the ^125I-labelled molecules in the melanoma-bearing mouse (autoradiography of whole-body sections); conditions: for Concentration of radioactivity, B 16 (tumour), Mean / Concentration of radioactivity, Ic (intestinal contents), Mean / Concentration of radioactivity, Sc (stomach contents), Mean / Concentration of radioactivity, blood (measured in the heart cavity), Mean / Concentration of radioactivity, brain, Mean / Concentration of radioactivity, kidney, Mean / Concentration of radioactivity, liver, Mean / Concentration of radioactivity, lungs, Mean / Concentration of radioactivity, muscle (skeletal muscle), Mean / Concentration of radioactivity, pancreas, Mean / Concentration of radioactivity, spleen, Mean / Concentration of radioactivity, uvea (pigmented tissues of the eye), Mean: ^125I-labelled compound; for Biodistribution, Mean, B 16 / Biodistribution, radioactivity concentration in B 16, Mean: B 16 tumour
[3] = 1 H after i.v., 125I-labelled, dose = 1.09 MBq
[4] = 3 H after i.v., 125I-labelled, dose = 1.09 MBq
[5] = 24 H after i.v., 125I-labelled, dose = 1.09 MBq
[6] = 72 H after i.v., 125I-labelled, dose = 1.09 MBq

Faecal elimination 0-72 hours (Faeces) [1]: 4.8%
Urinary and faecal elimination 0-72 hours (Total) [1]: 87.9%
Urinary elimination 0-72 hours (Urine) [1]: 83.1%
elimination route (in words) ([1]; urinary versus faecal, 0-72 hours): predominantly in the urine
Effective period (tumour): 17.8 h
Biological period (tumour): 19.6 hours
SMILES: CCN(CC)CCNC(=O)c1ccc(I)cc1 [BZA, N-(2-diethylaminoethyl)-4-iodobenzamide, reference compound]

Faecal elimination 0-72 hours (Faeces) [1]: 26.7%
Urinary and faecal elimination 0-72 hours (Total) [1]: 70.6%
Urinary elimination 0-72 hours (Urine) [1]: 43.7%
Effective period (tumour): 21.4 h
Biological period (tumour): 24.0 hours
Concentration of radioactivity, B 16 (tumour), Mean ([2]; 1 H after i.v. administration): 12.99 % ID/g
Concentration of radioactivity, Ic (intestinal contents), Mean ([2]; 1 H after i.v. administration): 7.82 % ID/g
Concentration of radioactivity, Sc (stomach contents), Mean ([2]; 1 H after i.v. administration): 27.82 % ID/g
Concentration of radioactivity, blood (measured in the heart cavity), Mean ([2]; 1 H after i.v. administration): 2.97 % ID/g
Concentration of radioactivity, brain, Mean ([2]; 1 H after i.v. administration): 4.37 % ID/g
Concentration of radioactivity, kidney, Mean ([2]; 1 H after i.v. administration): 13.30 % ID/g
Concentration of radioactivity, liver, Mean ([2]; 1 H after i.v. administration): 9.46 % ID/g
Concentration of radioactivity, lungs, Mean ([2]; 1 H after i.v. administration): 11.82 % ID/g
Concentration of radioactivity, muscle (skeletal muscle), Mean ([2]; 1 H after i.v. administration): 1.92 % ID/g
Concentration of radioactivity, pancreas, Mean ([2]; 1 H after i.v. administration): 10.18 % ID/g
Concentration of radioactivity, spleen, Mean ([2]; 1 H after i.v. administration): 9.70 % ID/g
Concentration of radioactivity, uvea (pigmented tissues of the eye), Mean ([2]; 1 H after i.v. administration): 13.21 % ID/g
Concentration of radioactivity, B 16 (tumour), Mean ([2]; 3 H after i.v. administration): 11.38 % ID/g
Concentration of radioactivity, Ic (intestinal contents), Mean ([2]; 3 H after i.v. administration): 25.85 % ID/g
Concentration of radioactivity, Sc (stomach contents), Mean ([2]; 3 H after i.v. administration): 24.69 % ID/g
Concentration of radioactivity, blood (measured in the heart cavity), Mean ([2]; 3 H after i.v. administration): 1.77 % ID/g
Concentration of radioactivity, brain, Mean ([2]; 3 H after i.v. administration): 0.78 % ID/g
Concentration of radioactivity, kidney, Mean ([2]; 3 H after i.v. administration): 5.65 % ID/g
Concentration of radioactivity, liver, Mean ([2]; 3 H after i.v. administration): 4.75 % ID/g
Concentration of radioactivity, lungs, Mean ([2]; 3 H after i.v. administration): 4.43 % ID/g
Concentration of radioactivity, muscle (skeletal muscle), Mean ([2]; 3 H after i.v. administration): 0.83 % ID/g
Concentration of radioactivity, pancreas, Mean ([2]; 3 H after i.v. administration): 8.19 % ID/g
Concentration of radioactivity, spleen, Mean ([2]; 3 H after i.v. administration): 2.59 % ID/g
Concentration of radioactivity, uvea (pigmented tissues of the eye), Mean ([2]; 3 H after i.v. administration): 13.90 % ID/g
Concentration of radioactivity, B 16 (tumour), Mean ([2]; 6 H after i.v. administration): 8.95 % ID/g
Concentration of radioactivity, Ic (intestinal contents), Mean ([2]; 6 H after i.v. administration): 18.72 % ID/g
Concentration of radioactivity, Sc (stomach contents), Mean ([2]; 6 H after i.v. administration): 10.79 % ID/g
Concentration of radioactivity, blood (measured in the heart cavity), Mean ([2]; 6 H after i.v. administration): 1.74 % ID/g
Concentration of radioactivity, brain, Mean ([2]; 6 H after i.v. administration): 0.25 % ID/g
Concentration of radioactivity, kidney, Mean ([2]; 6 H after i.v. administration): 3.07 % ID/g
Concentration of radioactivity, liver, Mean ([2]; 6 H after i.v. administration): 2.73 % ID/g
Concentration of radioactivity, lungs, Mean ([2]; 6 H after i.v. administration): 2.12 % ID/g
Concentration of radioactivity, muscle (skeletal muscle), Mean ([2]; 6 H after i.v. administration): 0.38 % ID/g
Concentration of radioactivity, spleen, Mean ([2]; 6 H after i.v. administration): 8.05 % ID/g
Concentration of radioactivity, uvea (pigmented tissues of the eye), Mean ([2]; 6 H after i.v. administration): 12.76 % ID/g
Concentration of radioactivity, B 16 (tumour), Mean ([2]; 24 H after i.v. administration): 6.97 % ID/g
Concentration of radioactivity, Ic (intestinal contents), Mean ([2]; 24 H after i.v. administration): 3.03 % ID/g
Concentration of radioactivity, Sc (stomach contents), Mean ([2]; 24 H after i.v. administration): 3.10 % ID/g
Concentration of radioactivity, uvea (pigmented tissues of the eye), Mean ([2]; 24 H after i.v. administration): 12.28 % ID/g
Concentration of radioactivity, B 16 (tumour), Mean ([2]; 72 H after i.v. administration): 1.52 % ID/g
Concentration of radioactivity, uvea (pigmented tissues of the eye), Mean ([2]; 72 H after i.v. administration): 7.84 % ID/g
SMILES: CCN(CC)CCNC(=O)c1ccc2cc(I)ccc2c1 [compound 3, N-(2-diethylaminoethyl)-6-iodo-2-naphthamide hydrochloride]

Faecal elimination 0-72 hours (Faeces) [1]: 23.2%
Urinary and faecal elimination 0-72 hours (Total) [1]: 31.7%
Urinary elimination 0-72 hours (Urine) [1]: 8.5%
Biodistribution, Mean, B 16 ([2]; 1 H): 4.78
Biodistribution, Mean, B 16 ([2]; 3 H): 3.98
Biodistribution, Mean, B 16 ([2]; 6 H): 4.57
Biodistribution, Mean, B 16 ([2]; 24 H): 2.77
Biodistribution, Mean, B 16 ([2]; 72 H): 1.67
Biodistribution, Mean, GB ([2]; 1 H): 43.71
Biodistribution, Mean, GB ([2]; 6 H): 12.79
Biodistribution, Mean, Ic ([2]; 1 H): 23.92
Biodistribution, Mean, Ic ([2]; 3 H): 30.20
Biodistribution, Mean, Ic ([2]; 6 H): 28.54
Biodistribution, Mean, Ic ([2]; 24 H): 1.83
Biodistribution, Mean, Ic ([2]; 72 H): 0.75
Biodistribution, Mean, Sc ([2]; 1 H): 10.16
Biodistribution, Mean, Sc ([2]; 3 H): 9.56
Biodistribution, Mean, Sc ([2]; 6 H): 6.06
Biodistribution, Mean, Sc ([2]; 24 H): 0.73
Biodistribution, Mean, blood ([2]; 1 H): 0.75
Biodistribution, Mean, blood ([2]; 3 H): 0.54
Biodistribution, Mean, blood ([2]; 6 H): 0.42
Biodistribution, Mean, brain ([2]; 1 H): 0.28
Biodistribution, Mean, brain ([2]; 3 H): 0.27
Biodistribution, Mean, brain ([2]; 6 H): 0.11
Biodistribution, Mean, kidney ([2]; 1 H): 3.07
Biodistribution, Mean, kidney ([2]; 3 H): 1.27
Biodistribution, Mean, kidney ([2]; 6 H): 0.77
Biodistribution, Mean, liver ([2]; 1 H): 5.38
Biodistribution, Mean, liver ([2]; 3 H): 3.62
Biodistribution, Mean, liver ([2]; 6 H): 2.16
Biodistribution, Mean, liver ([2]; 24 H): 0.48
Biodistribution, Mean, liver ([2]; 72 H): 0.42
Biodistribution, Mean, lungs ([2]; 1 H): 1.70
Biodistribution, Mean, lungs ([2]; 3 H): 0.88
Biodistribution, Mean, lungs ([2]; 6 H): 0.59
Biodistribution, Mean, muscle ([2]; muscle, 1 H): 0.30
Biodistribution, Mean, pancreas ([2]; 1 H): 1.38
Biodistribution, Mean, pancreas ([2]; 3 H): 0.70
Biodistribution, Mean, spleen ([2]; 1 H): 3.11
Biodistribution, Mean, spleen ([2]; 3 H): 1.29
Biodistribution, Mean, spleen ([2]; 6 H): 0.87
Biodistribution, Mean, thyroid ([2]; 1 H): 21.00
Biodistribution, Mean, thyroid ([2]; 24 H): 40.73
Biodistribution, Mean, thyroid ([2]; 72 H): 38.07
Biodistribution, Mean, uvea ([2]; 1 H): 3.83
Biodistribution, Mean, uvea ([2]; 3 H): 4.69
Biodistribution, Mean, uvea ([2]; 6 H): 3.51
Biodistribution, Mean, uvea ([2]; 24 H): 3.45
Biodistribution, Mean, uvea ([2]; 72 H): 1.96
SMILES: CCN(CC)CCNC(=O)c1cccc2cc3cc(I)ccc3nc12 [compound 111, N-(2-diethylaminoethyl)-7-iodoacridine-4-carboxamide dihydrochloride]

Faecal elimination 0-72 hours (Faeces) [1]: 34.8%
Urinary and faecal elimination 0-72 hours (Total) [1]: 80.5%
Urinary elimination 0-72 hours (Urine) [1]: 45.7%
Biodistribution, radioactivity concentration in B 16, Mean [2, 3]: 14.69 % ID/g
Biodistribution, radioactivity concentration in B 16, Mean [2, 4]: 44.92 % ID/g
Biodistribution, radioactivity concentration in B 16, Mean [2, 5]: 37.46 % ID/g
Biodistribution, radioactivity concentration in B 16, Mean [2, 6]: 24.02 % ID/g
Biodistribution, radioactivity concentration in Ic, Mean [2, 3]: 27.28 % ID/g
Biodistribution, radioactivity concentration in Ic, Mean [2, 4]: 29.12 % ID/g
Biodistribution, radioactivity concentration in Sc, Mean [2, 3]: 24.11 % ID/g
Biodistribution, radioactivity concentration in Sc, Mean [2, 4]: 34.86 % ID/g
tumour concentration, times higher than with BZA ([2]; at 72 hours (FIG. 1B)): 31 times
Biodistribution, radioactivity concentration in blood, Mean [2, 3]: 1.85 % ID/g
Biodistribution, radioactivity concentration in blood, Mean [2, 4]: 1.61 % ID/g
Biodistribution, radioactivity concentration in brain, Mean [2, 3]: 0.75 % ID/g
Biodistribution, radioactivity concentration in brain, Mean [2, 4]: 0.46 % ID/g
tumour concentration, % of the injected dose per gram of tumour ([2]; from the first hour): 14.7 % ID/g
Biodistribution, radioactivity concentration in kidney, Mean [2, 3]: 24.42 % ID/g
Biodistribution, radioactivity concentration in kidney, Mean [2, 4]: 17.73 % ID/g
Biodistribution, radioactivity concentration in liver, Mean [2, 3]: 12.84 % ID/g
Biodistribution, radioactivity concentration in liver, Mean [2, 4]: 7.84 % ID/g
Biodistribution, radioactivity concentration in lungs, Mean [2, 3]: 5.81 % ID/g
Biodistribution, radioactivity concentration in lungs, Mean [2, 4]: 4.91 % ID/g
Biodistribution, radioactivity concentration in muscle, Mean ([2]; muscle, 3 H after i.v., 125I-labelled, dose = 1.09 MBq): 0.79 % ID/g
Biodistribution, radioactivity concentration in pancreas, Mean [2, 3]: 23.88 % ID/g
Biodistribution, radioactivity concentration in pancreas, Mean [2, 4]: 13.06 % ID/g
Biodistribution, radioactivity concentration in spleen, Mean [2, 3]: 18.70 % ID/g
Biodistribution, radioactivity concentration in spleen, Mean [2, 4]: 6.08 % ID/g
Biodistribution, radioactivity concentration in thyroid, Mean [2, 4]: 60.78 % ID/g
Biodistribution, radioactivity concentration in thyroid, Mean [2, 5]: 44.74 % ID/g
Biodistribution, radioactivity concentration in uvea, Mean [2, 3]: 28.75 % ID/g
Biodistribution, radioactivity concentration in uvea, Mean [2, 4]: 41.75 % ID/g
Biodistribution, radioactivity concentration in uvea, Mean [2, 5]: 32.62 % ID/g
Biodistribution, radioactivity concentration in uvea, Mean [2, 6]: 23.28 % ID/g
SMILES: CCCN(CCC)CCCCNC(=O)c1cnc2cc(I)ccc2n1 [compound 144, N-(4-dipropylaminobutyl)-6-iodoquinoxaline-2-carboxamide dihydrochloride]
